Results taken from PMC9268591, “Anti-Inflammatory, Analgesic and Antioxidant Potential of New (2S,3S)-2-(4-isopropylbenzyl)-2-methyl-4-nitro-3-phenylbutanals and Their Corresponding Carboxylic Acids through In Vitro, In Silico and In Vivo Studies” (Molecules, 2022).

Assays:
[1] = DPPH free radical scavenging assay
Experimental: The protocol of Brand-Williams et al. was used for the DPPH assay with some modifications. DPPH (4 mg) was dissolved in methanol (100 mL) to obtain a mixture of […] 1,1-diphenyl,2-picrylhydrazyl (DPPH). The stock solution of the various synthesized compounds was prepared in methanol with 1 mg/mL concentration. This stock solution was used to prepare different concentrations of test samples ranging within 1000–62.5 μg/mL. The 0.1 mL of each concentration (1000–62.5 μg/mL) was combined with the DPPH (3 mL) solution in methanol. The solution was kept at 23 °C for 15 min incubation, followed by the absorbance measurement deliberated at 517 nm. Gallic acid was used as a standard drug in this assay. The percentage DPPH radical scavenging potential was measured via the formula [44]: % radical scavenging potential=CAbs.−SAbs./CAbs.×100 where CAbs. is the absorbance of the control, and SAbs is the absorbance of test samples/standard.

[2] = biological target: T1, 5-LOX (Homo sapiens, UniProt P09917); assay: 5-Lipoxygenase (5-LOX) inhibition assay; format: biochemical; settings: read-out: 5LOX IC50 ± SEM
T1 construct: purchased Sigma Aldrich Germany 437996
T1 sequence (P09917 1-674): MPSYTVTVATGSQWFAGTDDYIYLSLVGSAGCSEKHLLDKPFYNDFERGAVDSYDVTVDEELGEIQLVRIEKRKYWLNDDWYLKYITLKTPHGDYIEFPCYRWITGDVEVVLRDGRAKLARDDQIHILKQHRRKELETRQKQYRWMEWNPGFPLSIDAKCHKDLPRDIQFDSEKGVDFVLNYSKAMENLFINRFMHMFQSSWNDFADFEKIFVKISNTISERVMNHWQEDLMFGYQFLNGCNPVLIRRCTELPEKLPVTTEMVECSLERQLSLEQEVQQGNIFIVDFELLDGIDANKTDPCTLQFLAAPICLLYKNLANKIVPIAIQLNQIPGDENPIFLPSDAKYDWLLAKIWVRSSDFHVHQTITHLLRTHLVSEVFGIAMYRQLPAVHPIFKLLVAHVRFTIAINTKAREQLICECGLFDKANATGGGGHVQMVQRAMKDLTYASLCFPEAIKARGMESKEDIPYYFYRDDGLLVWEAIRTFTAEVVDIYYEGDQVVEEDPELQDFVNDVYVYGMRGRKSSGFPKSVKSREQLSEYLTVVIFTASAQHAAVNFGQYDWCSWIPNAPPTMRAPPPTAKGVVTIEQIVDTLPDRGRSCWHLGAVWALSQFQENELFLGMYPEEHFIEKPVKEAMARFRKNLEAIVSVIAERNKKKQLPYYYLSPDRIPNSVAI
Experimental: The lipoxygenase inhibition assay on the synthesized compounds was carried out as per the standard reported method. […] The 5-LOX enzyme solution was also prepared at a strength of 10,000 units/mL. The linoleic acid (80 mM) was employed as a substrate in lipoxygenase assay. The buffer (phosphate) was also prepared for the assay having 50 mM strength and a pH of 6.3. The samples of synthesized compounds (250 µL), phosphate buffer (250 µL) and mixture of the enzyme were mixed and incubated for five minutes. Afterwards, the solution of the substrate (0.6 mM, 1000 µL) was mixed with lipoxygenase enzyme mixture with shaking. […] The percent inhibition was calculated as per the standard method. […]
91- 7, GmbH USA). these all were purchased from Sigma Aldrich Germany. Buffer solution
containing (KH2PO4 & K2HPO4), was of best quality with high purity. […]

[3] = biological target: T2, COX-2 (Homo sapiens, UniProt P35354); assay: Cyclooxygenase (COX-2) inhibition assay; format: biochemical; settings: for SI (calculated selectivity index): COX-2 selectivity over COX-1; for IC50: read-out: IC50 ± SEM COX-2
T2 construct: purchased Sigma Aldrich Germany C0858
T2 sequence (P35354 18-604): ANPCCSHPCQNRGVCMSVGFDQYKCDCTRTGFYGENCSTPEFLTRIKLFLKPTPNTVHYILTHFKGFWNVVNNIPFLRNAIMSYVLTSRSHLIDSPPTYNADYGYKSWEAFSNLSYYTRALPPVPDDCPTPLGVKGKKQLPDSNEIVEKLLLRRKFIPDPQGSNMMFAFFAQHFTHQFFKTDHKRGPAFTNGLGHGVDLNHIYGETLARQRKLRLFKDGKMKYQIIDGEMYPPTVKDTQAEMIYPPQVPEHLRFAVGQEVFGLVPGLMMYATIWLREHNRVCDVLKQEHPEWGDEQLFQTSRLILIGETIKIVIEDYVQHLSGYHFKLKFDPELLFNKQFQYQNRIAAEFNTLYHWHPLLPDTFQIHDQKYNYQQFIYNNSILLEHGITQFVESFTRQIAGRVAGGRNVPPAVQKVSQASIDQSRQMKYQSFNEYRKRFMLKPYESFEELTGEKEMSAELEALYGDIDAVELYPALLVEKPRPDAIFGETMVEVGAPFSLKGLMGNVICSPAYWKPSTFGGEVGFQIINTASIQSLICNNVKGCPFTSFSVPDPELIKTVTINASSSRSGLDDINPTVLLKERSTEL
Experimental: (§1) The COX-1 and 2 enzymes’ inhibitions assays on the synthesized compounds were carried out as per the standard reported method. Initially, the respective enzyme solution was prepared in a concentration of 300 units/mL. The enzyme activation was started with keeping 10 µL of enzyme solution in the cold for up to 10 min. To this enzyme solution was added the substrate solution in HCl (0.1 M Trish buffer with pH of 8.0). The co-factor 50 µL solution contained TMPD (N,N,N,N-tetramethyl-p-phenylenediamine dihydrochloride, 0.24 mM), hematin (1 mM) and glutathione (0.9 mM). […] The reaction was initiated by adding arachidonic acid (20 µL, 30 mM). The overall solution was incubated for five minutes. Afterwards, the absorbance was recorded on a UV-visible instrument at 570 nm. From the absorbance value of every sample, the percentage inhibition was calculated as per the standard method.
Cyclooxygenase (COX-2) was acquired from human recombinant (Catalog No:C0858) and […]
co-factor substances in this study like N, N_, N_-tetramethyl-p-phenylenediamine […]
91- 7, GmbH USA). these all were purchased from Sigma Aldrich Germany. Buffer solution containing (KH2PO4 & K2HPO4), was of best quality with high purity. […]
was purchased from Pfizer Pharmaceutical and Libra (Pvt.) limited . Tramadol, Diclofenac was purchased from Alliance Pharmaceutical Pakistan.

[4] = biological target: COX-1 (Homo sapiens, UniProt P23219); assay: Cyclooxygenase (COX-1) inhibition assay; format: biochemical; settings: read-out: IC50 ± SEM COX-1
Chain of COX-1 (P23219 24-599): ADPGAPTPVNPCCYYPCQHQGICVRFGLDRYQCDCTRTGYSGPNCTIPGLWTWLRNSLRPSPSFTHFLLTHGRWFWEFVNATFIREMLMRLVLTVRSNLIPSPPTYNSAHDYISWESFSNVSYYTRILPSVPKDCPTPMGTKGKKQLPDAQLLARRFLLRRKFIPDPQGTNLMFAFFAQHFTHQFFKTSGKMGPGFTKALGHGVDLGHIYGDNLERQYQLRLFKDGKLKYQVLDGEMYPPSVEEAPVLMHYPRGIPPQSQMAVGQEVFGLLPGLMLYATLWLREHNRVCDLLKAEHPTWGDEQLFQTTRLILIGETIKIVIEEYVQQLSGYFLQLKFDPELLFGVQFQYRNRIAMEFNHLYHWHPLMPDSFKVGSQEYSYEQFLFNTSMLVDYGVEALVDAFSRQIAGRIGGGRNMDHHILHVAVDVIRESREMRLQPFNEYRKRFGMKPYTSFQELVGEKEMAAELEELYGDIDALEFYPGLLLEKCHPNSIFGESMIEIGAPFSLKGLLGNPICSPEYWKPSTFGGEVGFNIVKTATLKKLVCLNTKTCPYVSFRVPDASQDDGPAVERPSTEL
Experimental: as §1

[5] = ABTS free radical scavenging assay
Experimental: The total antioxidant activity of test compound (HBH) was estimated using the 2, 2-azinobis [3-ethylbenzthiazoline]-6-sulfonic acid (ABTS). The 100 mL of ABTS solution (7 mM) was added to 100 mL of potassium persulfate ([…], 2.45 mM) solution, mixed, and kept in the dark for 12 h to generate free radicals. […]. Gallic acid at 2 mg/2 mL of water was used as a standard drug. Likewise, for the test sample, different concentrations (1000–62.5 μg/mL) of the […] were made for absorbance measurements at the same wavelength. The 300 μL of each test solution was added to 3 mL of ABTS solution to measure the absorbance at 745 nm through a UV-visible spectrophotometer. A similar volume of each standard solution was taken to determine the absorbance at the same wavelength. The ABTS percent scavenging potential was calculated via the above formula [45].

[6] = test system: albino mice; assay: Acute toxicity; format: in vivo; settings: highest dose 2000 mg/kg
From the text: Before testing our selected compounds for in vivo experiments, we performed the toxicity test as per the protocol. Four groups of animals were labelled, with eight animals in each group. The control group was given normal saline, while other groups were given different concentrations of the selected compounds.

Row | Structure (SMILES) | IC50 [1] | IC50 [2] | SI (calculated selectivity index) [3] | IC50 [3] | melting point | IC50 [4] | IC50 [5] | Acute toxicity observation [6]
1 | COc1ccccc1[C@H](C[N+](=O)[O-])[C@@](C)(C=O)Cc1ccc(C(C)C)cc1 (mixture of isomers) [FM5, (2S,3S)-2-(4-isopropylbenzyl)-3-(2-methoxyphenyl)-2-methyl-4-nitrobutanal] | 184 µM | 16.3 ± 1.02 µM | 7.2 | 8.15 ± 0.98 µM | 129 to 131 °C | 58.4 ± 2.08 µM | 191 µM | 
2 | CC(C)c1ccc(C[C@](C)(C(=O)O)[C@@H](C[N+](=O)[O-])c2ccccc2)cc1 [FM7, (2S,3S)-2-(4-isopropylbenzyl)-2-methyl-4-nitro-3-phenylbutanoic Acid] | 22.5 µM | 0.73 ± 0.05 µM | 23.2 | 1.09 ± 0.01 µM | 243 to 245 °C | 25.3 ± 1.22 µM | 24.7 µM | 
3 | Cc1ccc([C@H](C[N+](=O)[O-])[C@](C)(Cc2ccc(C(C)C)cc2)C(=O)O)cc1 [FM9] |  |  |  |  | 233 to 235 °C |  |  | 
4 | COc1ccccc1[C@H](C[N+](=O)[O-])[C@](C)(Cc1ccc(C(C)C)cc1)C(=O)O [FM11] |  |  |  |  | 211 to 213 °C |  |  | 
5 | O=C(O)c1cc(O)c(O)c(O)c1 [Gallic acid, reference compound] | 9.02 µM |  |  |  |  |  | 3.23 µM | 
6 | COc1ccc([C@H](C[N+](=O)[O-])[C@@](C)(C=O)Cc2ccc(C(C)C)cc2)cc1 (mixture of isomers) [FM4, (2S,3S)-2-(4-isopropylbenzyl)-3-(4-methoxyphenyl)-2-methyl-4-nitrobutanal] | 21.1 µM | 0.98 ± 0.12 µM | 42.8 | 0.74 ± 0.03 µM |  | 31.7 ± 1.37 µM | 25.8 µM | very mild seizures and disturbances in breath (temporary)

More lines, main results first:

Row | IC50 [1] | IC50 [2] | SI (calculated selectivity index) [3] | IC50 [3] | melting point | IC50 [4] | IC50 [5] | Structure (SMILES) | Acute toxicity observation [6]
7 | 15.1 µM | 9.69 ± 0.99 µM | 3.6 | 3.53 ± 0.18 µM | 135 to 137 °C | 12.8 ± 1.08 µM | 11.5 µM | Cc1ccc([C@H](C[N+](=O)[O-])[C@@](C)(C=O)Cc2ccc(C(C)C)cc2)cc1 (mixture of isomers) [FM3, (2S,3S)-2-(4-isopropylbenzyl)-2-methyl-4-nitro-3-(p-tolyl)butanal] | 
8 |  |  |  |  | 259 to 261 °C |  |  | CC(C)c1ccc(C[C@](C)(C(=O)O)[C@@H](C[N+](=O)[O-])c2ccc(Cl)cc2)cc1 [FM8] | 
9 | 49.7 µM | 6.17 ± 0.23 µM | 11.6 | 4.72 ± 0.08 µM | 161 to 163 °C | 54.8 ± 1.95 µM | 37.7 µM | CC(C)c1ccc(C[C@](C)(C=O)[C@@H](C[N+](=O)[O-])c2ccco2)cc1 (mixture of isomers) [FM6, (2S,3S)-3-(furan-2-yl)-2-(4-isopropylbenzyl)-2-methyl-4-nitrobutanal] | 
10 | 54.4 µM | 1.81 ± 0.11 µM | 12.2 | 1.21 ± 0.03 µM | 149 to 151 °C | 14.8 ± 1.19 µM | 62.9 µM | CC(C)c1ccc(C[C@](C)(C=O)[C@@H](C[N+](=O)[O-])c2ccccc2)cc1 (mixture of isomers) [FM1, (2S,3S)-2-(4-isopropylbenzyl)-2-methyl-4-nitro-3-phenylbutanal] | 
11 | 55.4 µM | 0.64 ± 0.01 µM | 15.1 | 2.51 ± 0.24 µM | 173 to 175 °C | 38 ± 1.65 µM | 42 µM | CC(C)c1ccc(C[C@](C)(C=O)[C@@H](C[N+](=O)[O-])c2ccc(Cl)cc2)cc1 (mixture of isomers) [FM2, (2S,3S)-3-(4-chlorophenyl)-2-(4-isopropylbenzyl)-2-methyl-4-nitrobutanal] | 
